Reference: US20210196720A1 (UROVANT SCIENCES GMBH, priority 2018, published 2021)

Columns and labels:
[1] = Effect of food on oral absorption; format: in vivo, human; details: for Cmax / Tmax / AUC(0-t) / AUC(0-inf): human, plasma, oral; for AUC(0-t): read-out: AUC0-24
[2] = clinical; details: human, 100 mg
Excerpt: The relationship between clearance and renal function was modeled using linear regression.

[3] = biological target: T1, β1-AR (Homo sapiens, UniProt P08588); test: Competition binding assay, recombinant β1-AR
T1 construct: expressed in transfected cells; membranes prepared from them

[4] = Multiple rising dose Phase 1 PK, healthy subjects, day 14 (young males unless stated); format: in vivo, human
Excerpt: The steady state AUC geometric mean accumulation ratios were ˜2 in young male subjects and ˜2.8 in elderly subjects (male and female).
Although exposures were similar in middle-aged males when compared to young males, plasma concentrations were higher in elderly compared to middle-aged and young subjects. […] Furthermore, the steady state AUC geometric mean accumulation ratios were ˜2 in young males and ˜2.8 in the elderly.

[5] = 50 mg, high-fat meal, non-Japanese young males
[6] = 50 mg, standard Japanese breakfast, Japanese young males
[7] = 150 mg multiple dose, middle-aged and elderly females, Day 1
[8] = female, 150 mg, 150 mg multiple dose day 14, middle-aged females, fed
[9] = male, 50 mg, single 50 mg, Japanese young males, fed
[10] = male, 50 mg, single 50 mg, non-Japanese young males, fed

T1 sequence (P08588 whole entry): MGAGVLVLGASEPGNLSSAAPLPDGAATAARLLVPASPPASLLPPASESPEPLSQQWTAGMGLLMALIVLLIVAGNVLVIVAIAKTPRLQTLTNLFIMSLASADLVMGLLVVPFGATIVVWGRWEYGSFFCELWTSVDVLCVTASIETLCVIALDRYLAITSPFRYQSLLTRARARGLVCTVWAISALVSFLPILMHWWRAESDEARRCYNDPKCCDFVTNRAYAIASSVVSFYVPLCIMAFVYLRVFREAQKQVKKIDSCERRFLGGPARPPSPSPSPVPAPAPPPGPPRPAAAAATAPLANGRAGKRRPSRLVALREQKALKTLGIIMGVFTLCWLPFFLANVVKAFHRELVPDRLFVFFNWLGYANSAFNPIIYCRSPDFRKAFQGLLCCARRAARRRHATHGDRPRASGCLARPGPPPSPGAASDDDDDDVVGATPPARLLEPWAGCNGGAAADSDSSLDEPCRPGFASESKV

O=C(Nc1ccc(C[C@@H]2CC[C@H]([C@H](O)c3ccccc3)N2)cc1)[C@@H]1CCc2nccc(=O)n21 [Vibegron, (6S)-N-[4-[[(2S,5R)-5-[(R)-hydroxy(phenyl)methyl]pyrrolidin-2-yl]methyl]phenyl]-4-oxo-7,8-dihydro-6H-pyrrolo[1,2-a]pyrimidine-6-carboxamide]
AUC0-inf reduction, fed vs fasted [1, 5]: 46% | Cmax reduction, fed vs fasted [1, 5]: 67% | delay in Tmax, fed vs fasted [1, 5]: ~1 h | AUC0-inf reduction, fed vs fasted [1, 6]: 37% | Cmax reduction, fed vs fasted [1, 6]: 52% | Ctrough ([1]; 150 mg multiple dose day 14, middle-aged females, fed): 65.3 ± 7.87 ng/mL | AUC0-24 reduction with food vs fasted ([1]; 150 mg multiple dose, females, Day 14): ~20% | AUC0-24 with food compared to fasted [1, 7]: ~42% | Cmax with food compared to fasted [1, 7]: 59% | Cmax [1, 8]: 185 ± 32.3 ng/mL | Tmax [1, 8]: 6 h | AUC(0-t) [1, 8]: 2540 ± 334 ng·h/mL | AUC(0-inf) [1, 9]: 605 ± 222 ng·h/mL | Cmax [1, 9]: 36.2 ± 33.3 ng/mL | AUC(0-t) [1, 9]: 226 ± 112 ng·h/mL | AUC(0-inf) [1, 10]: 316 ± 127 ng·h/mL | Cmax [1, 10]: 7.6 ± 2.27 ng/mL | Tmax [1, 10]: 3 h | AUC(0-t) [1, 10]: 90.7 ± 22.9 ng·h/mL | Cmax ([2]; in vivo): 107 ng/mL | Cmax ([2]; plasma, oral): 152 ng/mL | half-life ([2]; plasma, oral): 131 h | binding to β1-AR [3]: does not bind | Ctrough ([4]; 25 mg QD): 5.07 ± 0.711 ng/mL | Ctrough ([4]; 50 mg QD): 15.2 ± 5.07 ng/mL | Ctrough ([4]; 50 mg QD, Japanese): 16.5 ± 6.05 ng/mL | Ctrough ([4]; 100 mg QD): 31.9 ± 11.5 ng/mL | steady state Cmax, elderly vs young males ([4]; 100 mg QD): ~1.3 fold | Ctrough ([4]; 100 mg QD, elderly male and female): 54.2 ± 15.3 ng/mL | fe0-24 hr, ss ([4]; 100 mg, elderly): ~17% | Cmax ([4]; 150 mg QD, middle-aged female, fasted): 346 ± 139 ng/mL | fe0-24 hr, ss ([4]; 100 and 150 mg, young males): ~14% | steady state exposure (AUC0-24) higher, elderly Japanese vs non-Japanese ([4]; Day 14): 35% | AUC(0-t) ([4]; both sexes, human, plasma, oral, 100 mg, 100 mg QD, elderly Japanese, read-out: AUC0-24): 2920 ± 693 ng·h/mL | half-life ([4]; both sexes, human, plasma, oral, 100 mg, 100 mg QD, elderly Japanese, read-out: t1/2 (converted)): 75.1 ± 3.9 h | AUC(0-t) ([4]; both sexes, human, plasma, oral, 100 mg, 100 mg QD, elderly male and female, read-out: AUC0-24): 2230 ± 671 ng·h/mL | Cmax ([4]; both sexes, human, plasma, oral, 100 mg, 100 mg QD, elderly male and female, read-out: Cmax): 224 ± 92 ng/mL | half-life ([4]; both sexes, human, plasma, oral, 100 mg, 100 mg QD, elderly male and female, read-out: t1/2 (converted)): 88.4 ± 10.7 h | CL renal ([4]; both sexes, human, urine, oral, 100 mg, elderly male and female, read-out: renal clearance CLR at steady state): 127 mL/min | Cmax higher than healthy young males ([4]; elderly and females): 50-70% | AUC(0-t) ([4]; female, human, plasma, oral, 100 mg, elderly females, read-out: steady state AUC0-24hr): 2620 ng·h/mL | Cmax ([4]; female, human, plasma, oral, 100 mg, elderly females, read-out: steady state Cmax): 278 ng/mL | AUC(0-t) ([4]; female, human, plasma, oral, 150 mg, 150 mg QD, middle-aged female, fasted, read-out: AUC0-24): 3180 ± 925 ng·h/mL | Cmax ([4]; female, human, plasma, oral, 150 mg, 150 mg QD, middle-aged female, fasted, read-out: Cmax): 246 ± 139 ng/mL | half-life ([4]; female, human, plasma, oral, 150 mg, 150 mg QD, middle-aged female, read-out: t1/2 (converted)): 83.1 ± 17.2 h | Cmax higher, elderly Japanese vs non-Japanese ([4]; human, in vivo): 82% | steady state AUC, middle-aged females vs middle-aged males ([4]; human, in vivo): ~1.5 fold | steady state exposure higher, Japanese vs non-Japanese young males ([4]; human, in vivo): ~30% | half-life ([4]; human, plasma, oral, young and elderly subjects, read-out: terminal t1/2): 59 to 94 h | AUC(0-t) ([4]; male, human, plasma, oral, 25 mg, 25 mg QD, read-out: AUC0-24): 164 ng·h/mL | Cmax ([4]; male, human, plasma, oral, 25 mg, 25 mg QD, read-out: Cmax): 15.6 ± 6.93 ng/mL | half-life ([4]; male, human, plasma, oral, 25 mg, 25 mg QD, read-out: t1/2 (converted)): 94 ± 9.6 h | AUC(0-t) ([4]; male, human, plasma, oral, 50 mg, 50 mg QD, Japanese, read-out: AUC0-24): 613 ± 296 ng·h/mL | Cmax ([4]; male, human, plasma, oral, 50 mg, 50 mg QD, Japanese, read-out: Cmax): 56.9 ± 34.2 ng/mL | half-life ([4]; male, human, plasma, oral, 50 mg, 50 mg QD, Japanese, read-out: t1/2 (converted)): 69.4 ± 6.6 h | AUC(0-t) ([4]; male, human, plasma, oral, 50 mg, 50 mg QD, read-out: AUC0-24): 507 ± 176 ng·h/mL | Cmax ([4]; male, human, plasma, oral, 50 mg, 50 mg QD, read-out: Cmax): 41.5 ± 12.3 ng/mL | half-life ([4]; male, human, plasma, oral, 50 mg, 50 mg QD, read-out: t1/2 (converted)): 77.2 ± 8.9 h | AUC(0-t) ([4]; male, human, plasma, oral, 100 mg, 100 mg QD, Japanese, read-out: AUC0-24): 1710 ± 542 ng·h/mL | Cmax ([4]; male, human, plasma, oral, 100 mg, 100 mg QD, Japanese, read-out: Cmax): 180 ± 111 ng/mL | half-life ([4]; male, human, plasma, oral, 100 mg, 100 mg QD, Japanese, read-out: t1/2 (converted)): 56.8 ± 19.2 h | AUC(0-t) ([4]; male, human, plasma, oral, 100 mg, 100 mg QD, read-out: AUC0-24): 1280 ± 529 ng·h/mL | Cmax ([4]; male, human, plasma, oral, 100 mg, 100 mg QD, read-out: Cmax): 169 ± 80.9 ng/mL | half-life ([4]; male, human, plasma, oral, 100 mg, 100 mg QD, read-out: t1/2 (converted)): 79.7 ± 11.5 h | half-life ([4]; male, human, plasma, oral, 150 mg, 150 mg QD, middle-aged male, after 28 days, read-out: t1/2 (converted)): 72.7 h | AUC(0-t) ([4]; male, human, plasma, oral, 150 mg, 150 mg QD, middle-aged male, read-out: AUC0-24): 2170 ± 452 ng·h/mL | Cmax ([4]; male, human, plasma, oral, 150 mg, 150 mg QD, middle-aged male, read-out: Cmax): 293 ± 67.1 ng/mL
